Data from patent publication US10172358B2, “Thiopicolinamide compounds with fungicidal activity” (Dow AgroSciences LLC, priority 2016, dated 2019).
Like-named read-outs stand apart in the source and are kept apart here.

Tests used:
[1] = tested on: Puccinia triticina; experiment: Fungicidal activity: wheat brown rust (PUCCRT), disease control on wheat seedlings; assay type: in vivo, Puccinia triticina on wheat plants (variety Yuma); details: high volume application, 100 ppm
Summary of the method: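 Compounds in acetone diluted with nine volumes of water containing 110 ppm Triton X-100, sprayed to run-off on first-leaf Yuma wheat seedlings, inoculated with P. triticina spores before or after treatment. Plants held overnight in dark dew room at 22° C., 100% RH, then greenhouse at 24° C.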

[2] = tested on: Zymoseptoria tritici; experiment: Fungicidal activity: leaf blotch of wheat (SEPTTR), disease control on wheat seedlings; assay type: in vivo, Zymoseptoria tritici on wheat plants (variety Yuma); details: high volume application, 100 ppm
Summary of the method: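 Wheat seedlings (cv. Yuma, first-leaf stage) sprayed to run-off with acetone/water solutions containing Triton X-100 (or EC formulations by track spray), inoculated with Z. tritici spores before or after treatment. Kept in a dew chamber, then greenhouse at 20 °C; percent control derived from disease severity relative to untreated plants.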

- melting point: 59 to 75 °C
Compound: COc1cc(F)ccc1C(c1ccc(F)cc1OC)[C@H](C)OC(=O)[C@H](C)NC(=S)c1nccc(OC)c1O [Compound 23]
- pest or weed control at 100 ppm ([1]; 24 h, 1 day protectant, read-out: PUCCRT 1DP disease control, HV activity at 100 ppm): > 80%
- pest or weed control at 100 ppm ([1]; 72 h, 3 day curative, read-out: PUCCRT 3DC disease control, HV activity at 100 ppm): ≤ 80%
- pest or weed control at 100 ppm ([2]; 24 h, 1 day protectant, read-out: SEPTTR 1DP disease control, HV activity at 100 ppm): > 80%
- pest or weed control at 100 ppm ([2]; 72 h, 3 day curative, read-out: SEPTTR 3DC disease control, HV activity at 100 ppm): > 80%
